Literature values, collected in paper PMC9633261, “Preclinical evaluation and first in human study of Al^18F radiolabeled ODAP-urea-based PSMA targeting ligand for PET imaging of prostate cancer” (Frontiers in Oncology, 2022).
Where two headings read alike, the source gives them in different places.

absorbed dose kidneys (ref [39]) [mGy/MBq]	absorbed dose kidneys (reported by Afshar-Oromieh et al. ref [37]) [mGy/MBq]	absorbed dose kidneys (reported by Pfob et al. ref [38]) [mGy/MBq]	SMILES
0.0945			O=C(O)CC[C@H](NC(=O)N[C@@H](CCCCNC(=O)c1ccc([18F])nc1)C(=O)O)C(=O)O [^18F-DCFPyL]
	0.262	0.121	O=C([O-])CN(CCN(CC(=O)[O-])Cc1cc(CCC(=O)NCCCCCC(=O)NCCCC[C@H](NC(=O)N[C@@H](CCC(=O)O)C(=O)O)C(=O)O)ccc1[O-])Cc1cc(CCC(=O)O)ccc1[O-].[68Ga+3].[OH3+] [^68Ga-PSMA-11]
